In PubChem BioAssay AID330 (DTP/NCI, 2004):
“And” between values parts separate entries of the source, which are not always exact repeats. Identical values can stand only once. Inconclusive results and toxic doses are left out. Rule for the calls: active = survival T/C of 150% or more; inactive = T/C below 125% in these data.

Test system: P388 leukemia ip, CD2F1 mice, survival T/C
Experiment: NCI In Vivo Anticancer Drug Screen. Data for tumor model P388 Leukemia (intraperitoneal) in CD2F1 (CDF1) mice
Conditions: endpoint: median survival time, higher = longer survival
Method in brief: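 Mice carrying the transplanted tumor received test compound or vehicle. Survival was recorded in each group, and the value is the treated-group measurement divided by that of the vehicle-treated control group.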

[1] = dose: 200.0 mg/kg/injection, schedule: Q04DX003 (ip), vehicle: saline with Tween-80
[2] = dose: 400.0 mg/kg/injection, schedule: Q04DX003 (ip), vehicle: saline with Tween-80
[3] = dose: 50.0 mg/kg/injection, schedule: Q01DX005 (ip), vehicle: saline with Tween-80
[4] = dose: 100.0 mg/kg/injection, schedule: Q01DX005 (ip), vehicle: saline with Tween-80
[5] = dose: 200.0 mg/kg/injection, schedule: Q01DX005 (ip), vehicle: saline with Tween-80
[6] = dose: 50.0 mg/kg/injection, schedule: Q01DX009 (ip), vehicle: saline
[7] = dose: 100.0 mg/kg/injection, schedule: Q01DX009 (ip), vehicle: saline
[8] = dose: 200.0 mg/kg/injection, schedule: Q01DX009 (ip), vehicle: saline
[9] = dose: 50.0 mg/kg/injection, schedule: Q01DX009 (ip), vehicle: saline with Tween-80
[10] = dose: 100.0 mg/kg/injection, schedule: Q01DX009 (ip), vehicle: saline with Tween-80
[11] = dose: 200.0 mg/kg/injection, schedule: Q01DX009 (ip), vehicle: saline with Tween-80
[12] = dose: 100.0 mg/kg/injection, schedule: Q04DX002 (ip), vehicle: saline with Tween-80
[13] = dose: 200.0 mg/kg/injection, schedule: Q04DX002 (ip), vehicle: saline with Tween-80
[14] = dose: 12.5 mg/kg/injection, schedule: Q01DX009 (ip), vehicle: saline with Tween-80
[15] = dose: 25.0 mg/kg/injection, schedule: Q01DX009 (ip), vehicle: saline with Tween-80
[16] = dose: 50.0 mg/kg/injection, schedule: Q04DX002 (ip), vehicle: saline with Tween-80
[17] = dose: 60.0 mg/kg/injection, schedule: Q01DX005 (ip), vehicle: saline with Tween-80
[18] = dose: 120.0 mg/kg/injection, schedule: Q01DX005 (ip), vehicle: saline with Tween-80
[19] = dose: 240.0 mg/kg/injection, schedule: Q01DX005 (ip), vehicle: saline with Tween-80

Measured: T/C

CCOC(=O)c1nc(C(Br)(Br)Br)[nH]c(=O)c1C
inactive: dose: 6.25 mg/kg/injection, schedule: Q01DX009 (ip), vehicle: distilled water + Tween-80 102 % of control | dose: 12.5 mg/kg/injection, schedule: Q01DX009 (ip), vehicle: distilled water + Tween-80 113 % of control | dose: 25.0 mg/kg/injection, schedule: Q01DX009 (ip), vehicle: distilled water + Tween-80 116 % of control | dose: 50.0 mg/kg/injection, schedule: Q01DX009 (ip), vehicle: distilled water + Tween-80 113 % of control | dose: 100.0 mg/kg/injection, schedule: Q01DX009 (ip), vehicle: distilled water + Tween-80 113 % of control

CSC1(CCC#N)C(=O)Nc2ccccc21 (stereo not given)
inactive: [1] 102 % of control | [2] 108 % of control

COC(=O)C1=C(C)NC(C)=C(C(=O)OC)C1c1ccc(Cl)c([N+](=O)[O-])c1
inactive: [3] 99 % of control | [4] 96 % of control | [5] 92 % of control

O=C(Oc1ccc[nH]c1=O)c1cc([N+](=O)[O-])cc([N+](=O)[O-])c1
inactive: dose: 12.5 mg/kg/injection, schedule: Q01DX009 (ip), vehicle: saline 99 % of control and 100 % of control | dose: 25.0 mg/kg/injection, schedule: Q01DX009 (ip), vehicle: saline 98 % of control and 107 % of control | [6] 99 % of control and 103 % of control | [7] 100 % of control | [8] 98 % of control and 101 % of control | dose: 400.0 mg/kg/injection, schedule: Q01DX009 (ip), vehicle: saline 100 % of control and 109 % of control

O=C1NN=COc2ccccc21
inactive: [9] 106 % of control and 108 % of control and 93 % of control | [10] 100 % of control and 102 % of control and 105 % of control | [11] 106 % of control and 115 % of control and 121 % of control | dose: 400.0 mg/kg/injection, schedule: Q01DX009 (ip), vehicle: saline with Tween-80 110 % of control and 119 % of control

Cc1cc(N(CCCl)CCCl)ccc1C=Nc1ccccc1-c1ccccc1
active: dose: 400.0 mg/kg/injection, schedule: Q01DX009 (ip), vehicle: Klucel (hydroxypropylcellulose) (HPC) 155 % of control | dose: 600.0 mg/kg/injection, schedule: Q01DX009 (ip), vehicle: Klucel (hydroxypropylcellulose) (HPC) 170 % of control

Cc1cc(Cl)c(C)c(Cl)c1Cl
inactive: dose: 100.0 mg/kg/injection, schedule: Q04DX003 (ip), vehicle: saline with Tween-80 95 % of control | [1] 95 % of control | [2] 91 % of control

NNC(=O)c1oc2ccccc2c1CN(CCO)CCO
inactive: [3] 102 % of control | [4] 98 % of control | [5] 107 % of control

CCN(CC)CCNc1ccc(COC(=O)NC)c2oc3ccc(OS(=O)(=O)c4ccc(C)cc4)cc3c(=O)c12
inactive: dose: 25.0 mg/kg/injection, schedule: Q01DX005 (ip), vehicle: water 89 % of control | dose: 50.0 mg/kg/injection, schedule: Q01DX005 (ip), vehicle: water 93 % of control | dose: 100.0 mg/kg/injection, schedule: Q01DX005 (ip), vehicle: water 90 % of control | dose: 200.0 mg/kg/injection, schedule: Q01DX005 (ip), vehicle: water 93 % of control

Nn1nnc2cc3c(cc21)nnn3N
inactive: [12] 109 % of control | [13] 98 % of control | dose: 400.0 mg/kg/injection, schedule: Q04DX002 (ip), vehicle: saline with Tween-80 95 % of control

CCN(CC)CCC1CN(C(C)C)CC1(c1ccccc1)c1ccccc1 (stereo not given)
inactive: [6] 101 % of control | [7] 109 % of control | [8] 116 % of control

O=C1CCC(Cc2ccc(I)cc2)C(=O)N1 (stereo not given)
inactive: dose: 100.0 mg/kg/injection, schedule: Q01DX001 (ip), vehicle: saline with Tween-80 101 % of control | dose: 200.0 mg/kg/injection, schedule: Q01DX001 (ip), vehicle: saline with Tween-80 100 % of control | dose: 400.0 mg/kg/injection, schedule: Q01DX001 (ip), vehicle: saline with Tween-80 95 % of control

O=C[c-]1[c-][c-][c-][c-]1.[Fe+2].[c-]1[c-][c-][cH-][c-]1
inactive: dose: 6.25 mg/kg/injection, schedule: Q01DX009 (ip), vehicle: saline with Tween-80 106 % of control | [14] 95 % of control | [15] 97 % of control | [9] 99 % of control

Cc1ccc(N=C(N)NN=C(c2ccc(Cl)cc2)c2ccc(Cl)cc2)cc1
inactive: dose: 25.0 mg/kg/injection, schedule: Q04DX002 (ip), vehicle: saline with Tween-80 98 % of control and 103 % of control and 107 % of control | [16] 100 % of control and 106 % of control and 108 % of control | [12] 107 % of control (2×) and 109 % of control | [13] 105 % of control and 118 % of control and 120 % of control

CC(C)(Br)C(=O)/C=C/c1ccc(Cl)c(Cl)c1
inactive: [17] 111 % of control | [18] 118 % of control | [19] 108 % of control

COc1nc(=O)n(C2OC(=O)C(C)(C)C2=O)cc1F (stereo not given)
inactive: dose: 11.25 mg/kg/injection, schedule: Q04DX002 (ip), vehicle: distilled water + Tween-80 100 % of control | dose: 22.5 mg/kg/injection, schedule: Q04DX002 (ip), vehicle: distilled water + Tween-80 106 % of control | dose: 45.0 mg/kg/injection, schedule: Q04DX002 (ip), vehicle: distilled water + Tween-80 100 % of control | dose: 90.0 mg/kg/injection, schedule: Q04DX002 (ip), vehicle: distilled water + Tween-80 106 % of control | dose: 180.0 mg/kg/injection, schedule: Q04DX002 (ip), vehicle: distilled water + Tween-80 96 % of control | dose: 360.0 mg/kg/injection, schedule: Q04DX002 (ip), vehicle: distilled water + Tween-80 100 % of control

CSCc1ccc(C(N)C(=O)O)cc1 (stereo not given)
inactive: [16] 99 % of control | [12] 96 % of control | [13] 99 % of control

CC(C)CC(NC(=O)CF)C(=O)O (stereo not given)
inactive: dose: 1.25 mg/kg/injection, schedule: Q01DX009 (ip), vehicle: saline with Tween-80 96 % of control | dose: 2.5 mg/kg/injection, schedule: Q01DX009 (ip), vehicle: saline with Tween-80 109 % of control | dose: 5.0 mg/kg/injection, schedule: Q01DX009 (ip), vehicle: saline with Tween-80 124 % of control

Cc1ccc2ccc(N(C)C)cc2n1
inactive: [9] 100 % of control | [10] 107 % of control

CC(C)(C)OC(=O)N(C=O)C(Cc1c[nH]c2ccccc12)C(=O)O (stereo not given)
inactive: dose: 50.0 mg/kg/injection, schedule: Q01DX005 (ip), vehicle: Klucel (hydroxypropylcellulose) (HPC) 100 % of control | dose: 100.0 mg/kg/injection, schedule: Q01DX005 (ip), vehicle: Klucel (hydroxypropylcellulose) (HPC) 103 % of control | dose: 200.0 mg/kg/injection, schedule: Q01DX005 (ip), vehicle: Klucel (hydroxypropylcellulose) (HPC) 99 % of control

CC(c1ccccc1)C(OC(=O)c1ccc([N+](=O)[O-])cc1)c1ccccc1 (stereo not given)
inactive: [14] 100 % of control | [15] 100 % of control | [9] 90 % of control

O=C(Oc1ccccc1)C(Cc1ccccc1)NC(=O)C(F)(F)F (stereo not given)
inactive: [9] 108 % of control | [10] 99 % of control | [11] 103 % of control

OC1CN(C(c2ccccc2)c2ccccc2)C1
inactive: dose: 50.0 mg/kg/injection, schedule: Q01DX009 (ip), vehicle: Klucel (hydroxypropylcellulose) (HPC) 100 % of control | dose: 100.0 mg/kg/injection, schedule: Q01DX009 (ip), vehicle: Klucel (hydroxypropylcellulose) (HPC) 108 % of control | dose: 200.0 mg/kg/injection, schedule: Q01DX009 (ip), vehicle: Klucel (hydroxypropylcellulose) (HPC) 104 % of control

CCOC(=O)c1cc(-c2cc(C(=O)OCC)c3ccccc3n2)nc2ccccc12
inactive: dose: 6.25 mg/kg/injection, schedule: Q01DX005 (ip), vehicle: saline with Tween-80 96 % of control | dose: 12.5 mg/kg/injection, schedule: Q01DX005 (ip), vehicle: saline with Tween-80 95 % of control | dose: 25.0 mg/kg/injection, schedule: Q01DX005 (ip), vehicle: saline with Tween-80 100 % of control | [4] 86 % of control

COc1ccc(C2COc3cc(O)c(O)cc3C2)cc1OC (stereo not given)
inactive: [17] 101 % of control | [18] 97 % of control | [19] 101 % of control
